In patent US20260097091A1, “ADMINISTRATION OF GLUTATHIONE TRISULFIDE TO AMELIORATE PERIPHERAL NEUROPATHY” (The General Hospital Corporation, priority 2022, published 2026):

Key:
[1] = tested on: Nrf2-dependent antioxidant signaling in DRG; assay: real-time qPCR of antioxidant genes in lumbar DRG; assay type: in vivo, mice; conditions: 2 hours after single 16 mg/kg paclitaxel i.p. with or without 50 mg/kg GSSSG oral
Protocol: Changes in gene expression in lumber dorsal root ganglions (DRG) induced by paclitaxel and GSSSG were examined with real-time qPCR after a single administration of paclitaxel with or without GSSSG. We simultaneously administered 16 mg/kg paclitaxel by intraperitoneal injection and 50 mg/kg GSSSG by oral gavage and examined the mRNA expression 2 hours later. Lumbar DRG were isolated from mice as described previously. Removed DRG were immersed in RNA later (Invitrogen, Cat No. AM7020) at 4° C. overnight. After retrieving from RNA later, they were stored at −80° C. DRGs were homogenized in TRIzol reagent (ThermoFisher Scientific, Cat No. 15596026) and mixed with chloroform. After centrifugation at 14000×g at 4° C. for 15 minutes, the transparent top layer was transferred to a new tube. The samples were mixed with 400 μl of isopropanol and incubated at −20° C. for 20 minutes. After centrifugation at 14000×g at 4° C. for 15 minutes, the pellets were collected, mixed with 70% ethanol, and centrifuged at 14000×g at 4° C. for 10 minutes. The pellets were dried for 10 minutes and incubated with 50 μl of nuclease-free water. Complementary DNA was synthesized using the cDNA Reverse Transcription Kit (Applied Biosystems, Cat No. 4368814) and quantitative PCR was performed by using SYBR green (Applied Biosystems, Cat No. A46109). Relative quantification of gene expression was performed via 2^−ΔΔCT method.

[2] = tested on: primary DRG neurons; assay: primary DRG neurons exposed to paclitaxel: Sholl analysis and axonal mitochondria (NF200, MitoTracker); assay type: cell-based, mice
Protocol: Primary DRG neurons were prepared from 8 to 10-week old mice as described previously. Briefly, lumber DRG (L1 to L6) were isolated from mice and centrifuged at 176×g (1000 rpm) for 3 minutes. After aspirating the solution, DRG were incubated with Dispase-II Solution (Sigma-Aldrich, Cat No. SCM133) and collagenase type II (Worthington, Cat No. LS004176) for 70 minutes and with 0.25% trypsin for 5 minutes. Subsequently triturated by frame polished glass pipet, neurons were seeded on a 12-well plate with 15 mm coverslip. Cells were incubated in Neurobasal A-medium with 2% B27 supplement (Gibco, Cat No. 10889038), 1% penicillin/streptomycin, 1% Glutamax (Gibco, Cat No. 35050061), and nerve growth factor (Sigma Aldrich, Cat No. N6009) for 24 hours. After 24 hours, they were exposed to 100 nM of paclitaxel with or without 500 nM of GSSSG or PTNSSS for one hour and 50 nM of MitoTracker (Invitrogen, Cat No. M22426) for 30 minutes. After fixing by 4% paraformaldehyde for 10 minutes at room temperature, cells were immersed in 0.2% Triton X-100 in PBS for 7 minutes and washed by PBS. They were incubated with anti-NF200 antibody (1:400, mouse, Sigma-Aldrich, Cat No. N0142) overnight at 4° C. and with the secondary antibody (1:1000, donkey anti-mouse, Abcam, Cat No. ab150105) for one hour at room temperature. After being covered with fluoroshield mounting medium with DAPI (Sigma-Aldrich, Cat No. F6057), 9-10 cells per group (3 mice per group) were imaged on confocal microscopy (ZEISS LSM 800, Carl Zeiss, Thornwood, NY) using a 63× oil immersion objectives lens with 1,024×1,024 pixels image size.
Effects of PTNSSS and GSSSG on axonal integrity were examined in cultured murine primary DRG neurons incubated with paclitaxel. […] Morphology of neurons, the number, length, and branching of neurites, was analyzed by Sholl analysis implemented in ImageJ [30]. Sholl analysis draws equally spaced circles from the soma and counts the number of intersections between neurites and circles to quantify neuronal morphology (FIG. 8C).

[3] = tested on: sciatic nerve; assay: transmission electron microscopy of sciatic nerve (unmyelinated neurons, mitochondria); assay type: in vivo, mice (C57BL/6J); conditions: for median area of mitochondria in unmyelinated neuron: sciatic nerve at 4 weeks, control 0.036
Protocol: Paclitaxel (Sigma-Aldrich) was dissolved with ethanol and cremophor (1:1) and diluted with normal saline (1:4). Peripheral neuropathy was induced in mice by intraperitoneal (i.p.) administration of 4 mg/kg paclitaxel every other day for a total of 4 injections (cumulative dose of 16 mg/kg), according to a previously described protocol. A stable, crystallized form of GSSSG was produced and provided by Kyowa Hakko Bio CO., LTD. GSSSG was pulverized and mixed in 0.5% methylcellulose. To evaluate the therapeutic effects of GSSSG in a model of PIPN, mice were randomly divided into three groups of 6. Mice were treated with: 1) paclitaxel alone; 2) paclitaxel and GSSSG; 3) or vehicle alone (control). Mice in groups 1 and 2 received paclitaxel as described above, while mice in the control group received the same volume of vehicle. The first dose of GSSSG was given within 1 hour after the first PTX injection. Treatment was administered as oral gavage for 28 days with GSSSG at 50 mg/kg/day (group 2) or 0.5% methylcellulose (groups 1 and 3). The dose of GSSSG was determined based on pilot studies. To determine the effect of GSSSG on the development of PIPN, behavioral tests to assess allodynia and hyperalgesia were conducted on all mice on days-1 (baseline), 7, 14, 21, and 28 after paclitaxel administration. Behavioral tests were performed by an investigator who was blinded to the treatment groups, as described in the next section. To evaluate unmyelinated neurons and mitochondria, we examined neurons in sciatic nerve by a transmission electron microscope. Resin-embedded nerve blocks using the same method above were sectioned at 50 nm by an ultramicrotome. Sections were examined with an FEI Morgagni transmission electron microscope. Low (×2200) and high (×11000) magnification of images were captured with an AMT 2K charge-coupled device camera (Advanced Microscopy Techniques, Woburn, MA, USA). Unmyelinated neurons were quantified in 9 low magnified images per group (3 mice per group). The percentage of unmyelinated neurons was calculated by dividing unmyelinated neurons by the total number of neurons. The cross-sectional area of mitochondria (μm^2) in unmyelinated neurons was quantified in 18 to 20 high magnified images per group (3 mice per group). In total, 80 to 100 mitochondrion per group were evaluated. Quantification was conducted by a blinded examiner, and the images were evaluated by a pathologist (A S-R) blinded to the identity of samples.

[4] = 500 nM GSSSG with 100 nM paclitaxel for one hour, vs paclitaxel
[5] = paclitaxel alone, 4 weeks, vs control mice

SMILES	Nrf2 mRNA levels [1]	expression of GCLC [1]	expression of HO1 [1]	levels of NQO1 mRNA [1]	axonal elongation (Sholl analysis) ([2]; 500 nM GSSSG with 100 nM paclitaxel for one hour, >160 μm from soma, vs paclitaxel)	number of mitochondria in axons [2, 4]	ratio of the total mitochondria length to axonal length [2, 4]	mitochondrial swelling in axons of unmyelinated neurons ([3]; paclitaxel and GSSSG 50 mg/kg/day oral, 4 weeks)	ratio of unmyelinated neurons to total neurons in sciatic nerve ([3]; paclitaxel and GSSSG 50 mg/kg/day oral, 4 weeks, vs paclitaxel alone)	median area of mitochondria in unmyelinated neuron ([3]; paclitaxel with GSSSG 50 mg/kg/day oral) [μm^2]	number of mitochondria in axons ([2]; 100 nM paclitaxel for one hour)	ratio of the total mitochondria length to axonal length ([2]; 100 nM paclitaxel for one hour)	elongation of axons (Sholl analysis) ([2]; 100 nM paclitaxel for one hour, vs control)	cross-sectional area of mitochondria in unmyelinated sciatic neurons [3, 5]	ratio of unmyelinated neurons to total neurons in sciatic nerve [3, 5]	median area of mitochondria in unmyelinated neuron ([3]; paclitaxel alone) [μm^2]
N[C@@H](CCC(=O)N[C@@H](CSSSC[C@H](NC(=O)CC[C@H](N)C(=O)O)C(=O)NCC(=O)O)C(=O)NCC(=O)O)C(=O)O [GSSSG, glutathione trisulfide]	increased Nrf2 mRNA levels	upregulated	upregulated	modestly increased	restored axonal elongation	prevented paclitaxel-induced decrease	prevented paclitaxel-induced decrease of the ratio of the total mitochondria length to axonal length	Prevented Mitochondrial Swelling	larger ratio of unmyelinated neurons	0.041	–	–	–	–	–	–
CC(=O)O[C@H]1C(=O)[C@@]2(C)[C@H]([C@H](OC(=O)c3ccccc3)[C@]3(O)C[C@H](OC(=O)[C@H](O)[C@@H](NC(=O)c4ccccc4)c4ccccc4)C(C)=C1C3(C)C)[C@]1(OC(C)=O)CO[C@@H]1C[C@@H]2O [paclitaxel, Paclitaxel, reference compound]	increased Nrf2 mRNA levels	not paclitaxel alone	not paclitaxel alone	not paclitaxel alone	–	–	–	–	–	–	decreased	decreased the ratio of the total mitochondria length to axonal length	hampered elongation of axons	significantly larger than those in control mice	tended to decrease unmyelinated neurons compared to control mice	0.057
